{
  "source": "patent US6455518B2",
  "about": "(Novartis AG, priority 1996, dated 2002)",
  "key": {"[1]": {"system": "Spleen cells of BALB/c and CBA mice", "experiment": "two-way mouse mixed lymphocyte reaction (3H-thymidine incorporation)", "type": "cell-based", "details": "single compound; 3H-thymidine incorporation after four days culture", "description": "After four days, ^3H-thymidine is added. Sixteen hours later, the cells are harvested and ^3H-thymidine incorporation is measured by liquid scintillation counting. Cell proliferation is assessed in the absence of compounds (100% value) or in the presence of serially diluted compounds or combinations of compounds. The maximum ^3H thymidine incorporation (100% value) is around 240×10^3 cpm, and the background ^3H-thymidine incorporation in unstimulated cells is around 5×10^3 cpm. […] These IC70 values are converted into relative units with regard to the IC70 value of the respective single drug treatment."}, "kidney allograft": {"system": "kidney allograft", "experiment": "orthotopic kidney allotransplantation model (DA donor, Lewis recipient)", "type": "in vivo, rat", "details": "for Histology of rejection: kidney", "source_text": "Kidney transplantation is followed by contralateral nephrectomy 7 days later: at nephrectomy, the graft is macroscopically inspected, and if rejection is macroscopically evident, the experiment is terminated. Surviving animals are monitored daily for clinical signs of renal dysfunction.\n(§1) In both the kidney and heart allograft experiments, the termination point in long term survivors is 100 days. In all cases, the graft is removed at autopsy, fixed in buffered formalin, and embedded in paraffin. Four micron thick sections stained with hematoxylin and eosin are read for signs of rejection and scored as “no rejection”, or “marginal”, “slight”, “moderate”, or “severe” cellular rejection based on the extent of mononuclear cell infiltration and damage to the parenchyma (tubules in the kidney, myocytes in the heart)."}, "heart allograft": {"system": "heart allograft", "experiment": "heterotopic heart allotransplantation model (DA donor, Lewis recipient)", "type": "in vivo, rat", "source_text": "The abdomen is then palpated daily to determine if the graft is still beating; in case of cessation of heartbeat, the experiment is terminated.\nas §1"}, "[2]": {"details": "rat, in vivo, iv", "description": "Whole blood concentrations of both compounds are determined by liquid chromatography-reversed isotope dilution (LC-RID)."}, "[3]": {"details": "heart, 40-O-(2-hydroxyethyl)-rapamycin 5.0 mg/kg daily oral"}},
  "data": [
    {"smiles": "CO[C@H]1C[C@@H]2CC[C@@H](C)[C@@](O)(O2)C(=O)C(=O)N2CCCC[C@H]2C(=O)O[C@H]([C@H](C)C[C@@H]2CC[C@@H](OCCO)[C@H](OC)C2)CC(=O)[C@H](C)/C=C(\\C)[C@@H](O)[C@@H](OC)C(=O)[C@H](C)C[C@H](C)/C=C/C=C/C=C/1C", "note": "[40-O-(2-hydroxyethyl)-rapamycin]", "values": [
      {"measurement": "IC70 (concentration at which the maximum proliferative response is inhibited by 70%)", "setting": "[1]", "result": 0.3, "unit": "nM"},
      {"measurement": "minimum effective dose giving long term allograft survival", "setting": "kidney allograft; kidney allograft, single compound treatment, daily oral", "result": 5.0, "unit": "mg/kg"},
      {"measurement": "Histology of rejection", "setting": "kidney allograft; 40-O-(2-hydroxyethyl)-rapamycin 1.0 mg/kg daily oral", "result": "moderate-severe"},
      {"measurement": "Histology of rejection", "setting": "kidney allograft; 40-O-(2-hydroxyethyl)-rapamycin 2.5 mg/kg daily oral", "result": "slight-moderate"},
      {"measurement": "Histology of rejection", "setting": "kidney allograft; 40-O-(2-hydroxyethyl)-rapamycin 5.0 mg/kg daily oral", "result": "moderate; ≧100 marginal"},
      {"measurement": "minimum effective dose giving long term allograft survival", "setting": "heart allograft; heart allograft, single compound treatment, daily oral", "result": "> 5.0", "unit": "mg/kg"},
      {"measurement": "Histology of rejection", "setting": "heart allograft; heart, 40-O-(2-hydroxyethyl)-rapamycin 1.0 mg/kg daily oral", "result": "severe"},
      {"measurement": "Histology of rejection", "setting": "heart allograft; heart, 40-O-(2-hydroxyethyl)-rapamycin 2.5 mg/kg daily oral", "result": "moderate"},
      {"measurement": "Histology of rejection", "setting": "heart allograft; [3]", "result": "moderate"},
      {"measurement": "Survival (days)", "setting": "heart allograft; [3]", "result": "22,23 days"},
      {"measurement": "CL", "setting": "[2]", "result": "3.2 ± 0.3", "unit": "mL/min"},
      {"measurement": "t1/2", "setting": "[2]", "result": "56 ± 7", "unit": "h"},
      {"measurement": "V", "setting": "[2]; 1 mg/kg", "result": "52 ± 3", "unit": "L/kg"}
    ]}
  ]
}
